Test results as given in ChEMBL document CHEMBL1201862, “PubChem BioAssay data set” (2004).
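Values below derive from 48-hour exposures of cells grown in 96-well plates, with endpoints linearly interpolated between the two concentrations bracketing the appropriate inhibition level. GI50 = concentration required for 50% inhibition of growth.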 Activity calls are given as the source filed them. Rule as the data show it: active = GI50 up to about 1.1 µM and inactive = higher.

What was measured:
Assay in all cases: NCI-60 cell line screen, 48 h
PC-3 = system: PC-3
OVCAR-3 = system: OVCAR-3
Malme-3M = system: Malme-3M
OVCAR-5 = system: OVCAR-5
HCT-15 = system: HCT-15
U-251 = system: U-251
UACC-257 = system: UACC-257
OVCAR-4 = system: OVCAR-4
SK-MEL-28 = system: SK-MEL-28
A549 = system: A549
SR = system: SR
SN12C = system: SN12C
UO-31 = system: UO-31
RPMI-8226 = system: RPMI-8226
COLO 205 = system: COLO 205
SNB-75 = system: SNB-75
SF-268 = system: SF-268
K562 = system: K562
SNB-19 = system: SNB-19
BT-549 = system: BT-549
MOLT-4 = system: MOLT-4
T47D = system: T47D
EKVX = system: EKVX
NCI-H522 = system: NCI-H522
DU-145 = system: DU-145
HOP-92 = system: HOP-92
M14 = system: M14
KM12 = system: KM12
SK-MEL-2 = system: SK-MEL-2
SW-620 = system: SW-620
MDA-MB-231 = system: MDA-MB-231
NCI-H23 = system: NCI-H23
LOX IMVI = system: LOX IMVI
SK-OV-3 = system: SK-OV-3
A498 = system: A498
CAKI-1 = system: CAKI-1
TK-10 = system: TK-10
NCI/ADR-RES = system: NCI/ADR-RES
IGROV-1 = system: IGROV-1
HOP-62 = system: HOP-62
HCT-116 = system: HCT-116
MDA-MB-435 = system: MDA-MB-435
MDA-N = system: MDA-N
MCF7 = system: MCF7
RXF 393 = system: RXF 393
786-0 = system: 786-0
HT-29 = system: HT-29
ACHN = system: ACHN
UACC-62 = system: UACC-62
SK-MEL-5 = system: SK-MEL-5
SF-295 = system: SF-295
OVCAR-8 = system: OVCAR-8
NCI-H226 = system: NCI-H226
Hs-578T = system: Hs-578T
HL-60 = system: HL-60
CCRF-CEM = system: CCRF-CEM
SF-539 = system: SF-539
HCC 2998 = system: HCC 2998
NCI-H460 = system: NCI-H460

Measured: GI50

O=C1c2ccccc2C(=O)c2c(Nc3cc4c5c(ccc6c7ccc8c9c(cc(Nc%10cccc%11c%10C(=O)c%10ccccc%10C%11=O)c(c3c56)c97)-c3ccccc3C8=O)C(=O)c3ccccc3-4)cccc21
> 100 µM: HCT-15
inactive: PC-3 70.6 µM | OVCAR-3 41.2 µM | Malme-3M > 100 µM | OVCAR-5 > 100 µM | U-251 21.1 µM | UACC-257 > 100 µM | OVCAR-4 65.8 µM | SK-MEL-28 > 100 µM | A549 61.7 µM | SR 43.7 µM | SN12C > 100 µM | UO-31 84.5 µM | RPMI-8226 > 100 µM | COLO 205 > 100 µM | SNB-75 17.6 µM | SF-268 18.8 µM | K562 75 µM | SNB-19 29.9 µM | BT-549 46.3 µM | MOLT-4 37.8 µM | T47D > 100 µM | EKVX 40.6 µM | NCI-H522 71 µM | DU-145 > 100 µM | HOP-92 41.8 µM | M14 > 100 µM | KM12 > 100 µM | SK-MEL-2 53.6 µM | SW-620 > 100 µM | MDA-MB-231 31.6 µM | NCI-H23 > 100 µM | LOX IMVI 72.1 µM | SK-OV-3 16.6 µM | A498 26.1 µM | CAKI-1 67 µM | TK-10 29.9 µM | NCI/ADR-RES 49.1 µM | IGROV-1 24.6 µM | HOP-62 17 µM | HCT-116 88.9 µM | MDA-MB-435 41.1 µM | MDA-N > 100 µM | MCF7 83.2 µM | RXF 393 60.3 µM | 786-0 29.2 µM | HT-29 > 100 µM | ACHN 36.1 µM | UACC-62 > 100 µM | SK-MEL-5 > 100 µM | SF-295 44 µM | OVCAR-8 25 µM | NCI-H226 > 100 µM | Hs-578T 18.1 µM

CCN(CC)c1ccc(/C=C/c2ccnc3ccccc23)cc1
> 100 µM: HCT-15
inactive: PC-3 > 100 µM | OVCAR-3 > 100 µM | Malme-3M > 100 µM | OVCAR-5 > 100 µM | U-251 > 100 µM | UACC-257 > 100 µM | OVCAR-4 > 100 µM | SK-MEL-28 > 100 µM | A549 > 100 µM | HL-60 > 100 µM | SR > 100 µM | SN12C > 100 µM | CCRF-CEM > 100 µM | UO-31 > 100 µM | RPMI-8226 > 100 µM | COLO 205 > 100 µM | SNB-75 > 100 µM | SF-268 > 100 µM | K562 > 100 µM | SNB-19 > 100 µM | SF-539 > 100 µM | BT-549 > 100 µM | T47D > 100 µM | EKVX > 100 µM | DU-145 > 100 µM | HOP-92 > 100 µM | M14 > 100 µM | KM12 > 100 µM | HCC 2998 > 100 µM | SK-MEL-2 > 100 µM | SW-620 > 100 µM | MDA-MB-231 > 100 µM | NCI-H23 > 100 µM | LOX IMVI > 100 µM | SK-OV-3 > 100 µM | A498 > 100 µM | CAKI-1 > 100 µM | TK-10 > 100 µM | NCI/ADR-RES > 100 µM | IGROV-1 > 100 µM | HOP-62 > 100 µM | HCT-116 > 100 µM | MDA-MB-435 > 100 µM | MDA-N > 100 µM | MCF7 > 100 µM | RXF 393 > 100 µM | 786-0 > 100 µM | HT-29 > 100 µM | ACHN > 100 µM | UACC-62 > 100 µM | SK-MEL-5 > 100 µM | NCI-H460 > 100 µM | SF-295 > 100 µM | Hs-578T > 100 µM
